Laboratory results: ChEMBL document CHEMBL6078700, “Synthesis of novel deuterated EGFR/ALK dual-target inhibitors and their activity against non-small cell lung cancer” (Eur J Med Chem, 2025)

Legend:
[1] = target: EML4-ALK (Homo sapiens, UniProt Q9UM73); assay: Inhibition of EML4-ALK (unknown origin) phosphorylation by ELISA; assay type: protein assay
[2] = tested on: NCI-H522; assay: Antiproliferative activity against human NCI-H522 cells expressing wild-type EGFR/ALK incubated for 48 hrs by CCK8 assay
[3] = tested on: PC-9; assay: Antiproliferative activity against human PC-9 cells expressing EGFR mutation incubated for 48 hrs by CCK8 assay
[4] = tested on: BaF3; assay: Antiproliferative activity against mouse BaF3 cells expressing EML4-ALK fusion incubated for 48 hrs by CCK8 assay
[5] = Metabolic stability in human liver microsomes assessed as clearance at 1 uM measured for 60 mins by LC-MS/MS analysis; assay type: ADME, Microsome; details: read-out: CLH
[6] = Metabolic stability in human liver microsomes assessed as half life at 1 uM measured for 60 mins by LC-MS/MS analysis; assay type: ADME, Microsome
[7] = Antiproliferative activity against human NCI-H1975 cells expressing EGFR mutation incubated for 48 hrs by CCK8 assay
[8] = tested on: NCI-H2228; assay: Antiproliferative activity against human NCI-H2228 cells expressing EML4-ALK fusion incubated for 48 hrs by CCK8 assay
[9] = tested on: NCI-H1975; assay: Antitumor activity against human NCI-H1975 cells xenografted in BALB/c-nu mouse at 30 mg/kg, po administered daily orally for 7 days relative to control; assay type: functional; details: time 7 day; for inhibition in vivo at 30 mg/kg: Mus musculus, NCI-H1975, 168 h, read-out: TGI
[10] = tested on: NCI-H1975; assay: Antitumor activity against human NCI-H1975 cells xenografted in BALB/c-nu mouse at 30 mg/kg, po administered daily orally for 21 days relative to control; assay type: functional; details: time 21 day
[11] = tested on: NCI-H1975; assay: Antitumor activity against human NCI-H1975 cells xenografted in BALB/c-nu mouse at 15 mg/kg, po administered daily orally for 21 days relative to control; assay type: functional; details: time 21 day, 15 mg/kg, 504 h
[12] = tested on: NCI-H1975; assay: Antitumor activity against human NCI-H1975 cells xenografted in BALB/c-nu mouse at 5 mg/kg, po administered daily orally for 21 days relative to control; assay type: functional; details: time 21 day, 5 mg/kg, 504 h
[13] = tested on: NCI-H1975; assay: Induction of cell cycle arrest in human NCI-H1975 cells assessed as accumulation at G0/G1 phase at 5 nM incubated for 24 hrs by PI/RNase staining based flow cytometry (reference value: 50.19 %); assay type: functional
[14] = tested on: NCI-H1975; assay: Induction of apoptosis in human NCI-H1975 cells assessed as necrotic cells at 5 nM incubated for 48 hrs by allo-Phycocyanin-Annexin V staining based flow cytometry (reference value: 0.031 %); assay type: functional
[15] = tested on: NCI-H1975; assay: Induction of apoptosis in human NCI-H1975 cells assessed as viable cells at 5 nM incubated for 48 hrs by allo-Phycocyanin-Annexin V staining based flow cytometry (reference value: 93.6 %); assay type: functional
[16] = tested on: NCI-H1975; assay: Induction of cell cycle arrest in human NCI-H1975 cells assessed as accumulation at G2/M phase at 5 nM incubated for 24 hrs by PI/RNase staining based flow cytometry (reference value: 32.71 %); assay type: functional
[17] = tested on: NCI-H1975; assay: Induction of apoptosis in human NCI-H1975 cells assessed as late apoptotic cells at 5 nM incubated for 48 hrs by allo-Phycocyanin-Annexin V staining based flow cytometry (reference value: 4.08 %); assay type: functional
[18] = tested on: NCI-H1975; assay: Induction of apoptosis in human NCI-H1975 cells assessed as early apoptotic cells at 5 nM incubated for 48 hrs by allo-Phycocyanin-Annexin V staining based flow cytometry (reference value: 2.27 %); assay type: functional
[19] = tested on: NCI-H1975; assay: Induction of cell cycle arrest in human NCI-H1975 cells assessed as accumulation at S phase at 5 nM incubated for 24 hrs by PI/RNase staining based flow cytometry (reference value: 17.1 %); assay type: functional

Sequence of EML4-ALK (Q9UM73 whole entry): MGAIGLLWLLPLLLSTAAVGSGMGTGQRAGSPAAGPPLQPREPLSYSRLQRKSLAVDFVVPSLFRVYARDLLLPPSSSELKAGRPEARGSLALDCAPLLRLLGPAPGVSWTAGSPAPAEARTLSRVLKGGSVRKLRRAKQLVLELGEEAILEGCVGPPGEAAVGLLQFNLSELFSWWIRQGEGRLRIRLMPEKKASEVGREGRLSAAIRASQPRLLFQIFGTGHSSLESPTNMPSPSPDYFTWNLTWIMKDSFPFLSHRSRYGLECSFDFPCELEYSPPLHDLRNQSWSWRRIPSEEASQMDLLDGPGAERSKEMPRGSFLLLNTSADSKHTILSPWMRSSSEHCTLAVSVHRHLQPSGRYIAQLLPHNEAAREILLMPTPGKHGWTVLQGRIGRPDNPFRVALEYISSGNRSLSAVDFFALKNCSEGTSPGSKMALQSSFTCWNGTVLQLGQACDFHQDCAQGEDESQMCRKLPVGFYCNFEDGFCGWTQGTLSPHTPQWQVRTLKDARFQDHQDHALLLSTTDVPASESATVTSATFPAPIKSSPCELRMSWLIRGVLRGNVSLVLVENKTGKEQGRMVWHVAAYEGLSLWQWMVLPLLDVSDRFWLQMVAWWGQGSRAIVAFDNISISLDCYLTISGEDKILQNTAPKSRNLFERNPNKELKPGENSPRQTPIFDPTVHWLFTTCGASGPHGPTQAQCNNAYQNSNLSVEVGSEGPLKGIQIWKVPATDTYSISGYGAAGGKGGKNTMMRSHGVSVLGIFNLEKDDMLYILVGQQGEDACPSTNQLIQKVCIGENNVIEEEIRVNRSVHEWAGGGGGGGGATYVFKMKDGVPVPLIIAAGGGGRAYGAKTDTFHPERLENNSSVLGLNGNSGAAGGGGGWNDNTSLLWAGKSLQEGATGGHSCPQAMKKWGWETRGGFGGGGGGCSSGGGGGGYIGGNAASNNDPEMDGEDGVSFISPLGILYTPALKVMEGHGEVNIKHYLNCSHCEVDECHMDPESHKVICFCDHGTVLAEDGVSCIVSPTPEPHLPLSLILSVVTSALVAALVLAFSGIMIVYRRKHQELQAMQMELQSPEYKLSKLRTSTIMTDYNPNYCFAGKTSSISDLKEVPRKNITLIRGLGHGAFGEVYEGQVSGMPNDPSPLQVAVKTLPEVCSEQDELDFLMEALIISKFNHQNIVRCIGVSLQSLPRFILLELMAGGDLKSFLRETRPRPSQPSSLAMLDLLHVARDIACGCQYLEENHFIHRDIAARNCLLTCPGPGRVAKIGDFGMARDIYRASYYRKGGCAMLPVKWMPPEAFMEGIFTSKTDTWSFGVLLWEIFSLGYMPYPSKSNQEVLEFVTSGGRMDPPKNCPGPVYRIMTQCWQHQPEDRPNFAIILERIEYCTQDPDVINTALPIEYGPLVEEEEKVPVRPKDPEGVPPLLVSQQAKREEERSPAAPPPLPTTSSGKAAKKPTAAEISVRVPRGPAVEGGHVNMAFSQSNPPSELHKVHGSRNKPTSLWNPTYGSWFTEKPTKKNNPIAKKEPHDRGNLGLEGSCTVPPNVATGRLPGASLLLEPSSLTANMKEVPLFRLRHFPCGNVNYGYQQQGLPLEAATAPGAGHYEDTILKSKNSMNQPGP
Sequence of EML4-ALK (Q9HC35 whole entry, further chain): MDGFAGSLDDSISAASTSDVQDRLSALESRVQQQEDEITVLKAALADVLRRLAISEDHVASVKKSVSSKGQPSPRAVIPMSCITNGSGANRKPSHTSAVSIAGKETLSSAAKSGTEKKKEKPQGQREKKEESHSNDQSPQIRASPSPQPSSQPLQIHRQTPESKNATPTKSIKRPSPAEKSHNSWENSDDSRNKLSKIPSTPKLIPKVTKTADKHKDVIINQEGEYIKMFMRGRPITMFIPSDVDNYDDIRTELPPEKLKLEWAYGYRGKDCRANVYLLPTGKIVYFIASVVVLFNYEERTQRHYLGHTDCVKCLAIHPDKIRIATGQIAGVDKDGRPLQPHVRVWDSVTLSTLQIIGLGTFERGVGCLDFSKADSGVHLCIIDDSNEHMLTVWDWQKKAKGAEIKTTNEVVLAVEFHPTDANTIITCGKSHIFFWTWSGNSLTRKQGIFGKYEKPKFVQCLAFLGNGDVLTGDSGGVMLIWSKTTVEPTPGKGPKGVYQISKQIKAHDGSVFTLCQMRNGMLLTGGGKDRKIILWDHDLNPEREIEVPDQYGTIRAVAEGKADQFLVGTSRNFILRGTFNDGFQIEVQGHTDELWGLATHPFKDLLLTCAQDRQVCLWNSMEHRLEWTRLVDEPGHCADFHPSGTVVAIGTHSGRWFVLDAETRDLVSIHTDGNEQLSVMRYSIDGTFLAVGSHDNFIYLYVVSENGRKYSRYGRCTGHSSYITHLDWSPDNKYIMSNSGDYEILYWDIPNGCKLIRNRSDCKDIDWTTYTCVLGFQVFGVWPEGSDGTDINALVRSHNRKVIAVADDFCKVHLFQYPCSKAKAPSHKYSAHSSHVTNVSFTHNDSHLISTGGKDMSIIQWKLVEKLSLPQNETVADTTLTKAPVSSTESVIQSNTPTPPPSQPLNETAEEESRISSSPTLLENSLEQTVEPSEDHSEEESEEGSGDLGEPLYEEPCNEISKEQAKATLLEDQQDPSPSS

IC50 [1] | IC50 ([2]; Homo sapiens, NCI-H522, 48 h) | IC50 ([3]; Homo sapiens, PC-9, 48 h) | IC50 ([4]; Mus musculus, BaF3, 48 h) | microsomal CLint at 1 µM [5] | half-life at 1 µM [6] | IC50 ([8]; Homo sapiens, NCI-H2228, 48 h) | Compound | IC50 ([7]; Homo sapiens, NCI-H1975, 48 h) | further results
6.81 nM | 1380 nM | 2.53 nM | 2.37 nM | 132 µL/min/mg | 26.3 min | 18.9 nM | C=CC(=O)Nc1cc(Nc2ncc(Cl)c(Nc3ccc(Cl)cc3[S+]([O-])C(C)C)n2)c(OC)cc1N(C)CCN(C)C (stereo not given) | 3.77 nM | –
8.81 nM | 2710 nM | 3.91 nM | 3.61 nM | 68.7 µL/min/mg | 50.5 min | 32.4 nM | [2H]C([2H])([2H])C([2H])([2H])[S+]([O-])c1cc(Cl)ccc1Nc1nc(Nc2cc(NC(=O)C=C)c(N(C)CCN(C)C)cc2OC)ncc1Cl (stereo not given) | 3.88 nM | –
10 nM | 2730 nM | 45.9 nM | 14.4 nM | 109 µL/min/mg | 31.9 min | 12.5 nM | [2H]C([2H])([2H])C([2H])([S+]([O-])c1ccccc1Nc1nc(Nc2cc(NC(=O)C=C)c(N(C)CCN(C)C)cc2OC)ncc1Cl)C([2H])([2H])[2H] (stereo not given) | 9.26 nM | –
5.47 nM | 2490 nM | 2.81 nM | 2.97 nM | 107 µL/min/mg | 32.3 min | 23.8 nM | C=CC(=O)Nc1cc(Nc2ncc(Cl)c(Nc3cccc(F)c3[S+]([O-])C(C)C)n2)c(OC)cc1N(C)CCN(C)C (stereo not given) | 7.59 nM | –
5.59 nM | 5330 nM | 5.13 nM | 7.74 nM | 27.7 µL/min/mg | 125 min | 58.2 nM | [2H]C([2H])([2H])C([2H])([2H])[S+]([O-])c1c(F)cccc1Nc1nc(Nc2cc(NC(=O)C=C)c(N(C)CCN(C)C)cc2OC)ncc1Cl (stereo not given) | 9.56 nM | inhibition in vivo at 30 mg/kg [9]: 85.9%
4.69 nM | – | 6.1 nM | 3.6 nM | – | – | 43.1 nM | C=CC(=O)Nc1cc(Nc2ncc(Cl)c(Nc3ccccc3[S+]([O-])CC)n2)c(OC)cc1N(C)CCN(C)C (stereo not given) | 4.3 nM | –
4.47 nM | 7860 nM | 3.14 nM | 4.03 nM | 15.5 µL/min/mg | 223 min | 66.8 nM | C=CC(=O)Nc1cc(Nc2ncc(Cl)c(Nc3cccc(F)c3[S+]([O-])CC)n2)c(OC)cc1N(C)CCN(C)C (stereo not given) | 2.79 nM | inhibition in vivo at 30 mg/kg [9]: 75.3%
7.39 nM | 2380 nM | 4.05 nM | 9.31 nM | 92 µL/min/mg | 37.7 min | 22.5 nM | C=CC(=O)Nc1cc(Nc2ncc(Cl)c(Nc3cccc(Cl)c3[S+]([O-])C(C)C)n2)c(OC)cc1N(C)CCN(C)C (stereo not given) | 7.55 nM | –
7.32 nM | 2420 nM | < 0.001 nM | 36 nM | 66.7 µL/min/mg | 52 min | 54.2 nM | C=CC(=O)Nc1cc(Nc2ncc(Cl)c(Nc3cccc(Cl)c3[S+]([O-])CC)n2)c(OC)cc1N(C)CCN(C)C (stereo not given) | 3.76 nM | –
2.09 nM | 2160 nM | 5.56 nM | 16.1 nM | 70.5 µL/min/mg | 49.1 min | 23.7 nM | [2H]C([2H])([2H])C([2H])([S+]([O-])c1c(F)cccc1Nc1nc(Nc2cc(NC(=O)C=C)c(N(C)CCN(C)C)cc2OC)ncc1Cl)C([2H])([2H])[2H] (stereo not given) | 17.2 nM | –
3.72 nM | – | – | – | 21.4 µL/min/mg | 162 min | 29.2 nM | [2H]C([2H])([2H])C([2H])([2H])[S+]([O-])c1ccccc1Nc1nc(Nc2cc(NC(=O)C=C)c(N(C)CCN(C)C)cc2OC)ncc1Cl (racemic) | – | IC50 ([2]; nci-h522): 4630 nM; IC50 ([3]; pc-9): 6.32 nM; IC50 ([4]; baf3): 3.53 nM; inhibition in vivo at 30 mg/kg [9]: 96.8%; IC50 ([7]; nci-h1975): 2.33 nM
– | – | – | – | – | – | – | [2H]C([2H])([2H])C([2H])([2H])[S+]([O-])c1ccccc1Nc1nc(Nc2cc(NC(=O)C=C)c(N(C)CCN(C)C)cc2OC)ncc1Cl (single isomer, unassigned; (+)) | – | TGI ([10]; 30 mg/kg, 504 h): 91.87%; IC50 ([2]; nci-h522): 6330 nM; IC50 ([3]; pc-9): 6.88 nM; IC50 ([4]; baf3): 18.3 nM; TGI [11]: 86.97%; TGI [12]: 72.01%; IC50 ([7]; nci-h1975): 5.36 nM; IC50 ([8]; nci-h2228): 37.6 nM
– | 4610 nM | 983 nM | 7.46 nM | – | – | 28.9 nM | COc1cc(N2CCC(N3CCN(C)CC3)CC2)ccc1Nc1ncc(Cl)c(Nc2ccccc2P(C)(C)=O)n1 [BRIGATINIB] | 484 nM | –
– | 2760 nM | 2150 nM | 10.1 nM | – | – | 18.3 nM | Cc1cc(Nc2ncc(Cl)c(Nc3ccccc3S(=O)(=O)C(C)C)n2)c(OC(C)C)cc1C1CCNCC1 [CERITINIB] | 2110 nM | –

Compound | IC50 [1] | IC50 ([2]; Homo sapiens, NCI-H522, 48 h) | IC50 ([3]; Homo sapiens, PC-9, 48 h) | IC50 ([4]; Mus musculus, BaF3, 48 h) | microsomal CLint at 1 µM [5] | half-life at 1 µM [6] | IC50 ([8]; Homo sapiens, NCI-H2228, 48 h) | IC50 ([7]; Homo sapiens, NCI-H1975, 48 h) | further results
C=CC(=O)Nc1cc(Nc2nccc(-c3cn(C)c4ccccc34)n2)c(OC)cc1N(C)CCN(C)C [OSIMERTINIB] | – | 2320 nM | 6.43 nM | 327 nM | – | – | 1840 nM | 4.16 nM | Activity [13]: 65.8%; TGI [10]: 95.05%; Activity [14]: 0.032%; Activity [15]: 71.1%; Activity [16]: 27.24%; TGI [9]: 94.73%; Activity [17]: 16.7%; Activity [18]: 12.2%; Activity [19]: 6.87%
